Key:
VDR [1] = molecular target: T1, VDR (Homo sapiens (Human), UniProt P11473); assay: VDR agonism: induction of CYP24 gene expression in SCC25 cells (RT/PCR); format: cell-based; details: for VDR agonist activity/potency (CYP24 induction, dose response): 1d; for induction of CYP24 by the compound blocked (consistent with binding to the VDR): FIG. 1c; for VDR agonism by induction of CYP24 gene expression (screen): test compounds 10 μM, FIG. 1a
Description: RNA isolation and RT/PCR analysis. PCR primers against CYP24 (forward, 5',5'-[NT], reverse, 5'-[NT] designed using Primer3 software as described and used in […]-Mendoza, Quach, T., Dabbas, B., Hudon, J., Liao, X., Palijan, A., Gleason, J. L., and White, J. H. (2008) Incorporation of histone deacetylase inhibition into the structure of a nuclear receptor agonist. Proc. Nat. Acad. Sci. […] After treatment, cells were washed with PBS, homogenized with 1 ml TRIzol Reagent (Invitrogen, Carlsbad, Calif.), kept at room temperature for 2-5 min, collected and kept at -80° C. for at least 1 h. After, thawing 0.2 ml chloroform was added. After vigorous mixing and storing for 10 min, mixtures were centrifuged (10,000 rpm, 15 min, 4° C.) and the upper transparent layer was transferred to a new tube. 0.5 ml isopropanol was added and the new solution was mixed. After centrifuging at 4° C., the supernatant was discarded and 1 ml of 75% ethanol was added. After centrifuging and discarding the supernatant, the pellet was air-dried for 5-10 min, and then dissolved in ddH2O. RNA concentrations were measured using a spectrophotometer, and 1-3 μg of RNA were loaded for reverse transcriptase reactions (total volume: 20 μl). 80 μl of ddH2O was added to the RT-product, and 1.5 μl of that was used as template for the PCR reaction. Reverse transcriptase (Super Script II) was purchased from Invitrogen (Carlsbad, Calif.). DNA polymerase and dNTP's were ordered from Fermentas (Glen Burnie, Md.).

SCC4 cells [2] = assay: MTS cell proliferation assay, SCC4; format: cell-based, human; details: vitamin D resistant SCC4 cells; FIGS. 7c, 8 and 9
Excerpt: Dose-dependent effects of compounds on cell cycle progression was monitored using a CellTiter 96 Aqueous Non-Radioactive Cell Proliferation Assay Kit (Promega). The assay composed of solutions of a novel tetrazolium compound (MTS) and an electron coupling reagent (phenazine methosulfate; PMS). MTS is reduced by metabolically active cells into a soluble formazan product that absorbs at 490 nm. The quantity of formazan product absorbing at 490 nm is directly proportional to the number of living cells.

AT84 cells = assay: EdU cell growth assay, AT84
Description: (§2) EdU Cell Growth Assay. Click-iT EdU Alexa Fluor high-throughput imaging (HCS) assay for cell proliferation. HCS assays were performed on AT84 mouse squamous carcinoma cell line (ATCC) following the manufacturer's instruction (Molecular Probes, Invitrogen). […] All samples were in triplicate.

SCC25 cells = assay: EdU cell growth assay, SCC25
Description: as §2

IGROV1 = assay: NCI 60 cell panel: IGROV1; format: cell-based; details: Ovarian Cancer
[3] = system: 60 cell panel of human carcinoma cell lines; assay: National Cancer Institute 60 cell panel (overall); format: cell-based
SCC4 cells [4] = assay: LDH cytotoxicity assay, SCC4; format: cell-based, human; details: vitamin D resistant SCC4 cells; FIGS. 10 and 11
Description: The cytotoxic effects of compounds were screened using a Cytotoxicity Assay Kit (Cayman Chemical), which measures release of the soluble […] enzyme lactate dehydrogenase (LDH) from dying cells into the culture medium using a coupled two-step reaction. LDH in the media catalyzes the reduction of NAD+ to NADH and H+ by oxidation of lactate to pyruvate. LDH-catalyzed NADH production is then measured by following diaphorase catalyzed NADH-dependent reduction of a tetrazolium salt (INT) to highly-colored formazan which absorbs strongly at 490-520 nm.

[5] = system: total intracellular HDAC activity; assay: HDACi activity with fluorogenic substrate in live SCC25 cells; format: cell-based, human; details: increasing concentration, FIG. 2a, b
Excerpt: (§1) This assay measures the inhibition of total intracellular HDAC activity and determines the capacity of compounds to inhibit HDACs in the form of their naturally occurring complexes.

[6] = system: total intracellular HDAC activity; assay: HDACi activity with fluorogenic substrate in live SCC4 cells; format: cell-based, human; details: increasing concentration, FIG. 2a, b
Excerpt: as §1

[7] = molecular target: VDR ligand binding domain (Homo sapiens (Human), UniProt P11473); assay: Fluorescence polarization (FP) competition assay; details: 0.5 nM fluorescent tracer
Description: Fluorescence polarization (FP) competition assay. The assay was performed using a vitamin D receptor competitor assay kit (Polarscreen, Invitrogen, Carlsbad, Calif.) set up using 0.5 nM fluorescent tracer. The assay measures the decrease in FP accompanying loss of binding to the relatively high molecular weight VDR ligand binding domain of the fluorescent tracer due to the presence of a competitor. FP was measured using an Analyst HT fluorimeter (Molecular Devices) configured with absorption and emissions filters as recommended by the kit manufacturers. Dose response curves and IC50 determination were determined using XLfit (IDBS) Sigmoidal Dose-Response Model [fit=(A+((B−A)/(1+((C/x)^D)))); inv=(C/((((B−A)/(y−A))−1)^(1/D))); res=(y−fit)].

VDR [8] = molecular target: T1, VDR; assay: Chromatin immunoprecipitation (ChIP) assay, CYP24 promoter, SCC25 cells; format: cell-based; details: FIG. 1e
Description: Chromatin immunoprecipitation assays. ChIP assays were performed with sonicated extracts of SCC25 cells as described (see Wang, T.-T. et al. J Immunol (2004) 173:2909-2912). […] Immunoprecipitations were performed using normal rabbit IgG, anti-VDR antibody (c-20) (Santa Cruz Biotechnology, Santa Cruz, Calif.). […].

SCC4 cells [9] = assay: EdU cell growth assay, SCC4; details: 1,25D-resistant SCC4 cells; FIG. 2e, f
Description: as §2

T1 sequence (P11473 whole entry): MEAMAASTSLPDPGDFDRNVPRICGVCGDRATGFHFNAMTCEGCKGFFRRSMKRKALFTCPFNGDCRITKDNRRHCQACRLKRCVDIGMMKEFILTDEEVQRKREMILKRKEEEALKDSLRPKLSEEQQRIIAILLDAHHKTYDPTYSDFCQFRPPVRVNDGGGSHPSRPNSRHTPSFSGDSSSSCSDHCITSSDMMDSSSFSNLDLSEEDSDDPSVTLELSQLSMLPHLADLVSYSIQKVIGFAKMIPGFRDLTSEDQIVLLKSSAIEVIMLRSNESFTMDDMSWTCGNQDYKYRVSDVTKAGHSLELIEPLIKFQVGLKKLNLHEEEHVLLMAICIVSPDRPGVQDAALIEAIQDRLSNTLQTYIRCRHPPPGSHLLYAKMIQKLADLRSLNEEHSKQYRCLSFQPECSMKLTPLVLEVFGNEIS
Chain of VDR ligand binding domain (P11473 127-423): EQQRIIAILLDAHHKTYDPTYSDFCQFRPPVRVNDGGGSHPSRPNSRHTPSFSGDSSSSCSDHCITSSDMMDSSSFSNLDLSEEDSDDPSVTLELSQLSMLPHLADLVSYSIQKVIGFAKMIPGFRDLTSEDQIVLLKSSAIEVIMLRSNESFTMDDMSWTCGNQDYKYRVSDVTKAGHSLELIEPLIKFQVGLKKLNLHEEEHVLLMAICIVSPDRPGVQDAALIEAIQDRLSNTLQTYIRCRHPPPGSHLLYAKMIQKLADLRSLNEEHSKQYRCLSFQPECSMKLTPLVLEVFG

`CCC(CC)(c1ccc(OCC(=O)NO)c(C)c1)c1ccc(OCC(O)C(C)(C)C)c(C)c1` (racemic) [JF-B01, N-Hydroxy-2-(4-(3-(4-(2-hydroxy-3,3-dimethylbutoxy)-3-methylphenyl)pentan-3-yl)-2-methylphenoxy)acetamide] was tested, and the “VDR agonist potency relative to 1,25D (fold lower)” value (VDR [1]; FIG. 1b) was “approximately 10 fold”, the “VDR agonist potency relative to LG190178” value (VDR [1]; FIG. 1b) was “equal to or greater than that of LG190178” and the “VDR agonist activity/potency (CYP24 induction, dose response)” value (“VDR agonist activity/potency” for short) (VDR [1]; FIG. 1b) was “efficacious agonist”. The “induction of CYP24 by the compound blocked (consistent with binding to the VDR)” value (shortened to “induction … (consistent with binding to the VDR)”) (VDR [1]) was “blocked”, the “VDR agonism by induction of CYP24 gene expression (screen)” value (“VDR agonism by induction” below) (VDR [1]) was “showed any agonist activity against VDR” and the “antiproliferative potency (MTS)” value (SCC4 cells [2]) was “low micromolar potency”. For the same molecule, the “antiproliferative potency relative to 1,25D (fold less potent)” value (AT84 cells) was 10 fold, the “antiproliferative potency relative to 1,25D (fold less potent)” value (SCC25 cells) was 10 fold and the TGI (IGROV1) was 5.25E−6. The “antiproliferative activity in the 60 cell panel” value ([3]; all cell lines) was “displayed antiproliferative activity in all cell lines” and the “full growth inhibition concentration” value ([3]; melanoma cell lines, 8 out of 9 cell lines) was no more than 7 µM.

In the case of `CCC(CC)(c1ccc(OCC(O)C(C)(C)C)c(C)c1)c1cc(C)c(CCC(=O)NO)s1` (stereo not drawn) [DK-178, N-hydroxy-3-(5-(3-(4-(2-hydroxy-3,3-dimethylbutoxy)-3-methylphenyl)pentan-3-yl)-3-methylthiophen-2-yl)propanamide], the “antiproliferative potency (MTS)” value (SCC4 cells [2]) is reported as “low micromolar potency”.

In the case of `CCC(CC)(c1ccc(OCC(O)C(C)(C)C)c(C)c1)c1c[nH]c2cc(CCC(=O)NO)ccc12` (stereo not drawn) [DK-222], the “cytotoxicity (LDH release)” value (SCC4 cells [4]) is reported as “good cytotoxicity” and the “antiproliferative potency (MTS)” value (SCC4 cells [2]) is reported as “low micromolar potency”.

For `CCC(CC)(c1ccc(OCC(O)C(C)(C)C)c(C)c1)c1cn(C)c2cc(CCC(=O)NO)ccc12` (stereo not drawn) [DK-234, N-hydroxy-3-(3-(3-(4-(2-hydroxy-3,3-dimethylbutoxy)-3-methylphenyl)pentan-3-yl)-1-methyl-1H-indol-6-yl)propanamide], the “antiproliferative potency (MTS)” value (SCC4 cells [2]) was “low micromolar potency”.

`CCC(CC)(c1ccc(OCC(O)C(C)(C)C)c(C)c1)c1ccc(OCC(=O)NO)c(Br)c1` (stereo not drawn) [DK-309, 2-(2-bromo-4-(3-(4-(2-hydroxy-3,3-dimethylbutoxy)-3-methylphenyl)pentan-3-yl)phenoxy)-N-hydroxyacetamide] was tested, and the “cytotoxicity (LDH release)” value (SCC4 cells [4]) was “good cytotoxicity”.

For `CCC(CC)(c1ccc(OCC(=O)NO)cc1)c1ccc(OCC(O)C(C)(C)C)c(C)c1` (stereo not drawn) [DK-366, N-hydroxy-2-(4-(3-(4-(2-hydroxy-3,3-dimethylbutoxy)-3-methylphenyl)pentan-3-yl)phenoxy)acetamide], the “cytotoxicity (LDH release)” value (SCC4 cells [4]) was “good cytotoxicity” and the “antiproliferative potency (MTS)” value (SCC4 cells [2]) was “low micromolar potency”.

With `CCC(CC)(c1ccc(OCCCCCC(=O)NO)cc1)c1ccc(OCC(O)C(C)(C)C)c(C)c1` (stereo not drawn) [DK-367] the “antiproliferative potency (MTS)” value (SCC4 cells [2]) was “low micromolar potency”.

For `CCC(CC)(c1ccc(OCC(=O)NO)c(C)c1)c1ccc(OCC(=O)NO)c(C)c1` [JF-B06], the “VDR agonism by induction” value (VDR [1]) was “completely inactive as VDR agonists”.

In the case of `CCC(CC)(c1ccc(OCC(=O)NO)c(C)c1)c1ccc(OCC(CO)CO)c(C)c1` [JF-B21], the “VDR agonism by induction” value (VDR [1]) is reported as “completely inactive as VDR agonists”.

`CCC(CC)(c1ccc(OCC(=O)NO)c(C)c1)c1ccc(OCC(O)CO)c(C)c1` (stereo not drawn) [JF-B40] was tested, and the “VDR agonism by induction” value (VDR [1]) was “completely inactive as VDR agonists”.

`CCC(CC)(c1ccc(OCCO)c(C)c1)c1ccc(OCC(=O)NO)c(C)c1` [JF-B52, N-Hydroxy-2-(4-(3-(4-(2-hydroxyethoxy)-3-methylphenyl)pentan-3-yl)-2-methylphenoxy)acetamide] was tested, and the “VDR agonism by induction” value (VDR [1]) was “completely inactive as VDR agonists”.

In the case of `CCC(CC)(c1ccc(OCC(=O)NO)c(C)c1)c1ccc(OCC(C)(C)O)c(C)c1` [JF-B53, N-Hydroxy-2-(4-(3-(4-(2-hydroxy-2-methylpropoxy)-3-methylphenyl)pentan-3-yl)-2-methylphenoxy)acetamide], the “VDR agonist activity/potency” value (VDR [1]; FIG. 1b) is reported as “showed VDR agonist activity, but with reduced potency” and the “induction … (consistent with binding to the VDR)” value (VDR [1]) is reported as “blocked”.

For `CCC(O)(CC)COc1ccc(C(CC)(CC)c2ccc(OCC(=O)NO)c(C)c2)cc1C` [JF-B54, 2-(4-(3-(4-(2-Ethyl-2-hydroxybutoxy)-3-methylphenyl)pentan-3-yl)-2-methylphenoxy)-N-hydroxyacetamide], the “VDR agonist activity/potency” value (VDR [1]; FIG. 1b) was “showed VDR agonist activity, but with reduced potency”, the “induction … (consistent with binding to the VDR)” value (VDR [1]) was “blocked” and the “inhibition of total intracellular HDAC activity (substrate deacetylation)” value [5] was “the most potent”. The “inhibition of total intracellular HDAC activity (substrate deacetylation)” value [6] was “the most potent”.

`CCC(CC)(c1ccc(OCC(=O)NO)c(C)c1)c1ccc(OCC(=O)C(C)(C)C)c(C)c1` [JF-B59, 2-(4-(3-(4-(3,3-dimethyl-2-oxobutoxy)-3-methylphenyl)pentan-3-yl)-2-methylphenoxy)-N-hydroxyacetamide] was tested, and the “VDR agonist potency relative to JF-B01 (fold lower)” value (VDR [1]; FIG. 1b) was greater than 10 fold.

With `CCC(CC)(c1ccc(OCC(=O)O)c(C)c1)c1ccc(OCC(=O)C(C)(C)C)c(C)c1` [JF-C11] the “VDR agonism by induction” value (VDR [1]) was “showed some agonist activity”.

For `CCC(CC)(c1ccc(OCC(=O)NO)c(C)c1)c1ccc(OC[C@H](O)C(C)(C)C)c(C)c1` [JF-C71, N-Hydroxy-2-(4-(3-(4-((2R)-hydroxy-3,3-dimethylbutoxy)-3-methylphenyl)pentan-3-yl)-2-methylphenoxy)acetamide], the “VDR agonist activity/potency” value (VDR [1]; FIG. 1b) was “VDR agonists with similar potencies”, the “antiproliferative potency (MTS)” value (SCC4 cells [2]) was “low micromolar potency” and the IC50 [7] was roughly 100 nM. The “binding of the VDR to the vitamin D response element in the proximal promoter of the CYP24 gene (ChIP)” value (VDR [8]) was “induced binding of the VDR to the vitamin D response element”.

For `CCC(CC)(c1ccc(OCC(=O)NO)c(C)c1)c1ccc(OC[C@@H](O)C(C)(C)C)c(C)c1` [JF-C72], the “VDR agonist activity/potency” value (VDR [1]; FIG. 1b) was “VDR agonists with similar potencies”, the “antiproliferative potency (MTS)” value (SCC4 cells [2]) was “low micromolar potency” and the IC50 [7] was roughly 35 nM. The “binding of the VDR to the vitamin D response element in the proximal promoter of the CYP24 gene (ChIP)” value (VDR [8]) was “induced binding of the VDR to the vitamin D response element”.

For `CCC(CC)(c1ccc(OCCCC(=O)NO)c(C)c1)c1ccc(OC[C@H](O)C(C)(C)C)c(C)c1` [JFD-15], the “antiproliferative potency (MTS)” value (SCC4 cells [2]) was “low micromolar potency”.

For `CCC(CC)(c1ccc(CCC(=O)NO)c(C)c1)c1ccc(OC[C@H](O)C(C)(C)C)c(C)c1` [JFD-50], the “antiproliferative potency (MTS)” value (SCC4 cells [2]) was “low micromolar potency”.

In the case of `CCC(CC)(c1ccc(OCC(O)CO)c(C)c1)c1ccc(OCC(O)C(C)(C)C)c(C)c1` (stereo not drawn) [LG190178], the “inhibition of proliferation (EdU incorporation)” value (SCC4 cells [9]) is reported as “failed to block SCC4 proliferation”.

Source: patent publication US9428447B2, “Bis-(aryl/heteroaryl)-methylene compounds, pharmaceutical compositions containing same and their use for treating cancer” (The Royal Institution For The Advancement of …, priority 2011, dated 2016)
